Where two headings read alike, the source gives them in different places.
Legend:
Aurora A = biological target: T1, Aurora A (Homo sapiens, UniProt O14965); assay: Aurora A kinase activity assay (Kemptide substrate, Kinase-Glo residual ATP); assay type: biochemical; conditions: recombinant Aurora A 10 nM, ATP 1 μM, Kemptide 100 μM, 30° C. 1 hour
T1 construct: purchased Upstate
T1 sequence (O14965 1-403): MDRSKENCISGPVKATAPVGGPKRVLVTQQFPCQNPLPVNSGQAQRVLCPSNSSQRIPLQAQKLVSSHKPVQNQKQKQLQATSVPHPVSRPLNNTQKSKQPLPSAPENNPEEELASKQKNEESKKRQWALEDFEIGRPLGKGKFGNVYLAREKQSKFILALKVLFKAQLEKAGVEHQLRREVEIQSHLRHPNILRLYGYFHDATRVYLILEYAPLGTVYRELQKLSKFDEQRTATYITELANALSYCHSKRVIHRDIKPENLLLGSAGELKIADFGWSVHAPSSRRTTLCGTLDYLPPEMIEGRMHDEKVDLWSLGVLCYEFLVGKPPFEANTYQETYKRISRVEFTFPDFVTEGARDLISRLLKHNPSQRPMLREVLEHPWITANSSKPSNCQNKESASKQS
Description: Further, the test compounds and comparative compound were successively diluted with dimethyl sulfoxide (DMSO) from an initial concentration of 12.5 mM to obtain test solutions and DMSO was used as a control solution. Less than 5% of each test solution or control solution was added to a reaction solution containing 20 mM HEPES (pH 7.5), 5 mM MgCl2, 0.5 mM EGTA, 200 mM KCl, 1 mM DTT and 0.05% triton X-100, and 100 μM of Kemptide peptide (PEPTRON), which is a substrate of aurora kinase, 1 μM of ATP and 10 nM of Aurora A (Upstate), which is a recombinant aurora kinase, were added thereto, followed by reacting each mixture at 30° C. for 1 hour. 25 μl of each reacted solution was mixed with 25 μl of Kinase-Glo™ (promega), and reacted at room temperature for 10 minutes, and the amount of residual ATP therein was measured using Fusion a-FP (Packard). Enzymic activity in each reacted solution was analyzed based on the measured value, and IC50 (μM) was determined as a concentration of the test compound required to inhibit the kinase activity by 50% relatively to the control solution, and the results are shown in Table 2.

[1] = system: human colon carcinoma cell line, HCT116; assay: Cancer cell proliferation, SRB assay; assay type: cell-based; conditions: HCT116, 48 hours, concentration inhibiting cancer cell proliferation by 50%
Description: (§1) In order to examine the suppressive effect of the inventive aminopyrimidine derivatives on the proliferation of cancer cells through inhibiting the protein kinase activity, a test was performed as follows by employing human colon carcinoma cell line, HCT116 (Korean Cell Line Bank, KCLB10247) and human fetal cell line, MRC-5 (Korean Cell Line Bank, KCLB10171).
(§2) HCT116 and MRC-5 cells were plated into the wells of a 96-well plate containing DMEM (Dulbecco's Modified Eagle Medium) medium at a concentration ranging from 1×10^3 to 3×10^3 cells/well, and cultured under conditions of 5% CO2 and 37° C. for 24 hours. Then, the test compounds of Examples 85 to 88, 97 to 99, 105 to 110 and 115 to 118, and a comparative compound, N-(4-(4-(5-methyl-1H-pyrrole-3-yl-amino)-6-(4-methylpiperazin-1-yl)-1,3,5-triazin-2-ylthio) cyclopropane carboxyamide were added thereto in an amount of 0.2, 1, 5, 25 and 100 μM, respectively. The control was not treated with any compound. The cells were cultured for 48 hours.
(§3) After removing the medium from each wells, the cells were washed about 3 times with phosphate-buffered saline (PBS, pH 7.4), followed by fixing with 50% TCA (trichloroacetic acid) refrigerant solution in an amount of 50 μl/well at 4° C. for 1 hour. The fixed cells were washed 5 times with distilled water and dried in the air, and stained with 50 μl/well of 1% acetic acid containing 0.4% SRB (sulforhodamine B) solution at room temperature for 1 hour. The stained cells were washed 5 times with 1% acetic acid and dried in the air, 150 μl/well of 10 mM Tris-HCl (pH 10.5) were added thereto, and the absorbance of each well was measured at 540 nm. The suppressive value of each compound for cell proliferation was calculated based on the absorbance of the control well, and the results are shown in Table 2. In Table 2, EC50 (μM) was determined as a concentration of the test compound required to inhibit cancer cell proliferation by 50% relative to the control, CC50 (μM) was determined as a concentration of the test compound required to inhibit normal cell proliferation by 50% relative to the control, and the therapeutic index was determined as the value of CC50(μM)/EC50(μM).

[2] = Normal cell proliferation, SRB assay; assay type: cell-based, human; conditions: human, CC50(μM)
Description: as §1, §2, §3

[3] = system: human fetal cell line, MRC-5; assay: Normal cell proliferation, SRB assay; assay type: cell-based
Description: as §1, §2, §3

Compound	IC50 (Aurora A) [nM]	EC50 ([1]; Homo sapiens, HCT-116, 48 h) [nM]	EC50 [1] [nM]	CC50 at 48 h [2] [µM]	CC50 ([3]; human, 48 h) [nM]	CC50 ([3]; MRC-5, 48 hours, concentration inhibiting normal cell proliferation by 50%, read-out: CC50) [nM]	CC50 [3] [nM]
CC1(C)C2CCC1(C)C(NC(=O)c1ccnc(Nc3ccc(N4CCCCC4)cc3)n1)C2 (stereo not drawn) [Compound 85, 2-(4-(piperidine-1-yl)phenylamino)-N-(1,7,7-trimethylbicyclo[2.2.1]heptane-2-yl)pyrimidine-4-carboxyamide]	33	1600		38			
CC1(C)C2CCC1(C)C(NC(=O)c1ccnc(Nc3cccc(NCCCN4CCOCC4)c3)n1)C2 (stereo not drawn) [Compound 98, 2-(3-(3-morpholinopropylamino)phenylamino)-N-(1,7,7-trimethylbicyclo[2.2.1]hep-tan-2-yl)pyrimidine-4-carboxyamide]	39		3200		52600		
CC1(C)C2CCC1(C)C(NC(=O)c1ccnc(Nc3cccc(NCCCN4CCOCC4)c3)n1)C2 (stereo not drawn) [Compound 97, 2-(3-(3-morpholinopropylamino)phenylamino)-N-(1,7,7-trimethylbicyclo[2.2.1]hep-tan-2-yl)pyrimidine-4-carboxyamide]	50	3100		> 100			
COc1ccc(Nc2nccc(C(=O)NC3CC4CCC3(C)C4(C)C)n2)cc1OCCN1CCOCC1 (stereo not drawn) [Compound 99, 2-(4-methoxy-3-(2-morpholinoethoxy)phenyl-amino)-N-(1,7,7-trimethylbicyclo[2.2.1]hep-tan-2-yl)pyrimidine-4-carboxyamide]	23	2000		52			
N-(4-(4-(5-methyl-1H-pyrrole-3-yl-amino)-6-(4-methylpiperazin-1-yl)-1,3,5-triazin-2-ylthio) cyclopropane carboxyamide [Comparative compound, reference compound]	19		3000			33000	
CC1(C)C2CCC1(C)C(NC(=O)c1ccnc(Nc3ccc(NCCN4CCCC4)cc3)n1)C2 (stereo not drawn) [Compound 88, 2-(4-(2-(pyrrolidine-1-yl)ethylamino)phenyl-amino)-N-(1,7,7-trimethylbicyclo[2.2.1]heptane-2-yl)pyrimidine-carboxamide]	10	800		24.5			
CCN1CCN(c2ccc(Nc3nccc(C(=O)NC4CC5CCC4(C)C5(C)C)n3)cc2)CC1 (stereo not drawn) [Compound 105, 2-(4-(4-ethylpiperazin-1-yl)phenylamino)-N-(1,7,7-trimethylbicyclo[2.2.1]hep-tan-2-yl)pyrimidine-4-carboxyamide]	17	500		> 100			
CN(C)CCNc1ccc(Nc2nccc(C(=O)NC3CC4CCC3(C)C4(C)C)n2)cc1 (stereo not drawn) [Compound 86]	88	1200		> 100			
CCN(CC)CCOc1cc(Nc2nccc(C(=O)NC3CC4CCC3(C)C4(C)C)n2)ccc1OC (stereo not drawn) [Compound 106, 2-(3-(2-(diethylamino)ethoxy)-4-methoxyphenylamino)-N-(1,7,7-trimethylbicyclo[2.2.1]hep-tan-2-yl)pyrimidine-4-carboxyamide]	11		900				33000

Further lines, with some results ahead:

IC50 (Aurora A) [nM]	EC50 ([1]; Homo sapiens, HCT-116, 48 h) [nM]	EC50 [1] [nM]	Compound	CC50 at 48 h [2] [µM]	CC50 ([3]; human, 48 h) [nM]	CC50 ([3]; MRC-5, 48 hours, concentration inhibiting normal cell proliferation by 50%, read-out: CC50) [nM]	CC50 [3] [nM]
10	1900		CC1(C)C2CCC1(C)C(NC(=O)c1ccnc(Nc3ccc(N4CCN(CCO)CC4)cc3)n1)C2 (stereo not drawn) [Compound 108, 2-(4-(4-(2-hydroxyethyl)piperazin-1-yl)phenylamino)-N-(1,7,7-trimethylbicyclo[2.2.1]hep-tan-2-yl)pyrimidine-4-carboxyamide]	56			
20	1900		CCCN1CCN(c2ccc(Nc3nccc(C(=O)NC4CC5CCC4(C)C5(C)C)n3)cc2)CC1 (stereo not drawn) [Compound 110, 2-(4-(4-propylpiperazin-1-yl)phenylamino)-N-(1,7,7-trimethylbicyclo[2.2.1]hep-tan-2-yl)pyrimidine-4-carboxyamide]	32			
93	3100		CC(C)CN1CCN(c2ccc(Nc3nccc(C(=O)NC4CC5CCC4(C)C5(C)C)n3)cc2)CC1 (stereo not drawn) [Compound 115, 2-(4-(4-isobutylpiperazin-1-yl)phenylamino)-N-(1,7,7-trimethylbicyclo-[2.2.1]heptan-2-yl)pyrimidine-4-carboxyamide]	100			
19	2800		CC1(C)C2CCC1(C)C(NC(=O)c1ccnc(Nc3cccc(NCC#N)c3)n1)C2 (stereo not drawn) [Compound 118, 2-(3-(cianomethylamino)phenylami-no)-N-(1,7,7-trimethylbicyclo-[2.2.1]heptane-2-yl)pyrimidine-4-carboxyamide]	62.5			
12	1700		CC1(C)C2CCC1(C)C(NC(=O)c1ccnc(Nc3ccc(N4CCN(CC#N)CC4)cc3)n1)C2 (stereo not drawn) [Compound 116, 2-(4-(4-(cianomethyl)piperazin-1-yl)phenylamino)-N-(1,7,7-trimethylbicyclo [2.2.1]heptan-2-yl)pyrimidine-4-carboxyamide]	26.6			
20	2800		CC(C)N1CCN(c2ccc(Nc3nccc(C(=O)NC4CC5CCC4(C)C5(C)C)n3)cc2)CC1 (stereo not drawn) [Compound 109, 2-(4-(4-isopropylpiperazin-1-yl)phenylamino)-N-(1,7,7-trimethylbicyclo[2.2.1]hep-tan-2-yl)pyrimidine-4-carboxyamide]	23.5			
18	1200		COc1ccc(Nc2nccc(C(=O)NC3CC4CCC3(C)C4(C)C)n2)cc1OCCN1CCCC1 (stereo not drawn) [Compound 107, 2-(4-methoxy-3-(2-(pyrrolidin-1-yl)ethoxy)phenylamino)-N-(1,7,7-trimethylbicyclo[2.2.1]hep-tan-2-yl)pyrimidine-4-carboxyamide]	46			
